Experimental data reported in patent publication US20070093436A1, “Drop1, a novel marker for carcinogenesis” (Deutsches Kresforschungszentrum Stiftung Des Offentlichen …, priority 2003, published 2007).

Assays:
Assay type in all cases: cell-based, human
[1] = test system: Drop1 mRNA in cell lines exhibiting a low level of Drop1 (GG and M130); assay: Treatment of cell lines exhibiting a low level of Drop1 with demethylating agents
Protocol: (§1) Treatment of cells with methyltransferase inhibitors was carried out as described by Widschwendter et al., J. Nat. Cancer Inst. 92 (2000), 826-832). All-trans-retinoic acid (ATRA) and 5-aza-deoxycytidine (Aza-CdR) were from Sigma Chemical Co. (St. Louis, Mo.). 1 mM solutions were prepared in dimethyl sulfoxide and diluted in culture medium. Cells were incubated either for 5 days, with […] Aza-CdR, for 24 h with […], or for 5 days with […] Aza-CdR followed by 24 h with 1 mM ATRA, or left untreated. They were detached with trypsin (0.05%)-EDTA (0.02%) in Dulbecco's phosphate-buffered saline (PBS), washed, and pelleted.
(§2) The possibility that promoter methylation might downregulate Drop1 was investigated.

[2] = test system: Drop1 expression in M130 cells; assay: Treatment of cells with methyltransferase inhibitors, Drop1 expression by quantitative PCR
Protocol: (§3) The differential expression was validated by quantitative PCR and analyzed in the Agilent 2100 Bioanalyzer (Agilent Technologies, Waldbronn, Germany, PC Hewlett packard, Vectra VL, Hewlett packard, Boeblingen; Software Agilent 2100 Bio Sizing 1.3, Agilent Technologies, Waldbronn) or by semi-quantitative analysis of the resulting cDNA on a 2% agarose gel.
(§4) • 1 μl cDNA of the 20 μl RT-mixture (corresponding to 0.5 ng of cDNA); • 1 μl Drop1 Upper primer (5′ […] ATA 3′ corresponding to positions 8255-8278 in exon 53), 20 μM; • 1 μl Drop1 Lower primer (Lower primer 5′ […] 3′, complementary to positions 8500-8473 in exon 55), 20 μM; • 5 μl cDNA-PCR reaction buffer, 10×; • 1 μl dNTP-Mix, 10 mM; • 1 μl advantage-cDNA-polymerase mix, 50×;
(§5) Steps 1 to 3 were repeated 34 to 46 times. After individual cycles in that range, aliquots were removed and run on a gel. The amount of PCR-product from the first cycle producing a visible band of 246 bp was then quantitated using the Agilent system and an intercalating dye to detect double-stranded DNA. Under these conditions, quantitative PCR detected Drop1 plus enaptin, yet not cpg2, and the various nexins.
as §1, §2

[3] = test system: Drop1 expression in SKOV-3 cells; assay: as above
Protocol: as §3, §4, §5, §1, §2

[4] = test system: Drop1 expression in GG cells; assay: as above
Protocol: as §3, §4, §5, §1, §2

[5] = 5 days 2.5 mM Aza-CdR, 24 h 1 mM ATRA, or 5 days Aza-CdR followed by 24 h ATRA

CC1=C(/C=C/C(C)=C/C=C/C(C)=C/C(=O)O)C(C)(C)CCC1 [ATRA, all-trans-retinoic acid]
Increase of Drop1 mRNA [1]: an order of magnitude
Increase of Drop1 expression versus cells in medium [2]: 18 fold
Expression of downregulated Drop1 in cells treated with inhibitors of gene methylation [2, 5]: 1.8 × 10^−2
Increase of Drop1 expression ([3]; SKOV-3, a cell line with a physiological level of Drop1): No increase of expression
Expression of downregulated Drop1 in cells treated with inhibitors of gene methylation ([3]; SKOV-3 cells, 5 days 2.5 mM Aza-CdR, 24 h 1 mM ATRA, or 5 days Aza-CdR followed by 24 h ATRA): 2.2 × 10^−4
Increase of Drop1 expression versus cells in medium [4]: 2.5 fold
Expression of downregulated Drop1 in cells treated with inhibitors of gene methylation [4, 5]: 1.3 × 10^−4
